Measured values from ChEMBL document CHEMBL1201862, “PubChem BioAssay data set” (2004).
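Step 1: Grow cells in 96-well plates. Step 2: Expose to compound for 48 hours at 5 concentrations. Step 3: Interpolate endpoints linearly; if unreached, use highest concentration. GI50 marks 50% less growth.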 Calls of active or inactive are those of the source. Cut-off read from the data, not from the text of the source: active = GI50 up to about 1.1 µM and inactive = higher.

Columns and labels:
Test in all cases: growth of human tumour cells (NCI), 48 h
SF-295 = test system: SF-295
TK-10 = test system: TK-10
OVCAR-4 = test system: OVCAR-4
OVCAR-5 = test system: OVCAR-5
NCI-H226 = test system: NCI-H226
A549 = test system: A549
EKVX = test system: EKVX
UO-31 = test system: UO-31
UACC-257 = test system: UACC-257
SNB-75 = test system: SNB-75
SW-620 = test system: SW-620
IGROV-1 = test system: IGROV-1
U-251 = test system: U-251
A498 = test system: A498
NCI-H23 = test system: NCI-H23
HCT-15 = test system: HCT-15
SK-MEL-28 = test system: SK-MEL-28
DU-145 = test system: DU-145
MCF7 = test system: MCF7
NCI-H460 = test system: NCI-H460

Row | Compound | GI50 (SF-295) | GI50 (TK-10) | GI50 (OVCAR-4) | GI50 (OVCAR-5) | GI50 (NCI-H226) | GI50 (A549) | GI50 (EKVX) | GI50 (UO-31) | GI50 (UACC-257) | GI50 (SNB-75) | GI50 (SW-620) | GI50 (IGROV-1) | GI50 (U-251) | GI50 (A498) | GI50 (NCI-H23) | GI50 (HCT-15) | GI50 (SK-MEL-28) | GI50 (DU-145) | GI50 (MCF7) | GI50 (NCI-H460)
1 | O=C1c2ccccc2C(=O)c2c(Nc3cc4c5c(ccc6c7ccc8c9c(cc(Nc%10cccc%11c%10C(=O)c%10ccccc%10C%11=O)c(c3c56)c97)-c3ccccc3C8=O)C(=O)c3ccccc3-4)cccc21 | 44 µM (inactive) | 29.9 µM (inactive) | 65.8 µM (inactive) | > 100 µM (inactive) | > 100 µM (inactive) | 61.7 µM (inactive) | 40.6 µM (inactive) | 84.5 µM (inactive) | > 100 µM (inactive) | 17.6 µM (inactive) | > 100 µM (inactive) | 24.6 µM (inactive) | 21.1 µM (inactive) | 26.1 µM (inactive) | > 100 µM (inactive) | > 100 µM | > 100 µM (inactive) | > 100 µM (inactive) | 83.2 µM (inactive) | –
2 | CC1CCCCNC1=S (stereo unspecified) | > 10 µM (inactive) | > 10 µM (inactive) | – | > 10 µM (inactive) | > 10 µM (inactive) | > 10 µM (inactive) | > 10 µM (inactive) | > 10 µM (inactive) | > 10 µM (inactive) | > 10 µM (inactive) | > 10 µM (inactive) | > 10 µM (inactive) | > 10 µM (inactive) | > 10 µM (inactive) | > 10 µM (inactive) | > 10 µM | > 10 µM (inactive) | > 10 µM (inactive) | > 10 µM (inactive) | > 10 µM (inactive)
3 | C1CN(c2nc3c(nnc4nc(N5CCOCC5)sc43)s2)CCO1 | > 100 µM (inactive) | > 100 µM (inactive) | > 100 µM (inactive) | > 100 µM (inactive) | 84.7 µM (inactive) | > 100 µM (inactive) | > 100 µM (inactive) | > 100 µM (inactive) | > 100 µM (inactive) | – | > 100 µM (inactive) | > 100 µM (inactive) | 60.8 µM (inactive) | > 100 µM (inactive) | > 100 µM (inactive) | > 100 µM | > 100 µM (inactive) | > 100 µM (inactive) | 73.3 µM (inactive) | –
4 | CC(=O)C(=C(I)I)c1ccccc1 | 25.9 µM (inactive) | – | 16.1 µM (inactive) | 23.3 µM (inactive) | 11.5 µM (inactive) | 24.6 µM (inactive) | 25.7 µM (inactive) | 19.2 µM (inactive) | 16.7 µM (inactive) | – | 18.3 µM (inactive) | 26.1 µM (inactive) | 17.5 µM (inactive) | 22 µM (inactive) | 16.8 µM (inactive) | 29.3 µM | 19.5 µM (inactive) | 29.7 µM (inactive) | 27.6 µM (inactive) | 33.4 µM (inactive)
5 | C/C=C1/CN2CC[C@@H]3c4ccccc4N4[C@H](C(=O)OC)[C@H]1C[C@H]2[C@]34/C=C/C1=COC[C@@H]2[C@H]1C[C@H]1c3c(c4ccccc4n3C)C[C@@H]2N1C | 4.45 µM (inactive) | 3.86 µM (inactive) | 3.61 µM (inactive) | 4.33 µM (inactive) | 4.5 µM (inactive) | 4.16 µM (inactive) | 2.99 µM (inactive) | 3.99 µM (inactive) | 4.52 µM (inactive) | – | 3.83 µM (inactive) | 4.57 µM (inactive) | 3.72 µM (inactive) | 4.59 µM (inactive) | 4.39 µM (inactive) | 4.14 µM | 5.15 µM (inactive) | 5.12 µM (inactive) | 4.55 µM (inactive) | 4.04 µM (inactive)
6 | COC(OC)(c1ccccc1)C(Br)Br | > 100 µM (inactive) | – | – | > 100 µM (inactive) | > 100 µM (inactive) | > 100 µM (inactive) | > 100 µM (inactive) | > 100 µM (inactive) | > 100 µM (inactive) | 81.1 µM (inactive) | 15.8 µM (inactive) | 50.8 µM (inactive) | > 100 µM (inactive) | > 100 µM (inactive) | > 100 µM (inactive) | 17.1 µM | > 100 µM (inactive) | > 100 µM (inactive) | 39 µM (inactive) | > 100 µM (inactive)
7 | CCOC(=O)CC[C@H](NC(=O)N[C@H](C)c1ccccc1)C(=O)OCC | > 100 µM (inactive) | 42.8 µM (inactive) | 52.1 µM (inactive) | > 100 µM (inactive) | > 100 µM (inactive) | > 100 µM (inactive) | > 100 µM (inactive) | 29.2 µM (inactive) | 18.3 µM (inactive) | – | > 100 µM (inactive) | 20.8 µM (inactive) | 39.8 µM (inactive) | > 100 µM (inactive) | 89.1 µM (inactive) | > 100 µM | 20.9 µM (inactive) | 83.2 µM (inactive) | 32.7 µM (inactive) | > 100 µM (inactive)
8 | O=C1CC(CC(O)[C@@H]2CCCC[C@@H]2O)CC(=O)N1c1ccccc1 (stereo partly specified) | > 100 µM (inactive) | > 100 µM (inactive) | > 100 µM (inactive) | > 100 µM (inactive) | > 100 µM (inactive) | > 100 µM (inactive) | – | > 100 µM (inactive) | > 100 µM (inactive) | > 100 µM (inactive) | > 100 µM (inactive) | > 100 µM (inactive) | > 100 µM (inactive) | > 100 µM (inactive) | > 100 µM (inactive) | > 100 µM | > 100 µM (inactive) | > 100 µM (inactive) | > 100 µM (inactive) | > 100 µM (inactive)
9 | NNC(=O)c1c(SCc2ccccc2)nc2c3ccccc3ccn12 | 21.9 µM (inactive) | 30.9 µM (inactive) | 14.5 µM (inactive) | 20.5 µM (inactive) | 22.1 µM (inactive) | 23.4 µM (inactive) | 19.5 µM (inactive) | 10 µM (inactive) | 37.2 µM (inactive) | – | 20.9 µM (inactive) | 14.4 µM (inactive) | 17.7 µM (inactive) | 11.6 µM (inactive) | 21.2 µM (inactive) | 5.66 µM | 18.1 µM (inactive) | 23.9 µM (inactive) | 24.2 µM (inactive) | 14.8 µM (inactive)
10 | Cc1cc(O)cc(O)c1/N=N/c1ccc([N+](=O)[O-])cc1 | > 100 µM (inactive) | 23.9 µM (inactive) | 9.64 µM (inactive) | 27.7 µM (inactive) | – | 30.1 µM (inactive) | 22.3 µM (inactive) | 25 µM (inactive) | 25.1 µM (inactive) | 18.5 µM (inactive) | 5.96 µM (inactive) | 16.1 µM (inactive) | 16.7 µM (inactive) | 18.4 µM (inactive) | 17.7 µM (inactive) | 6.87 µM | 16.6 µM (inactive) | 22.9 µM (inactive) | 16.5 µM (inactive) | 19.4 µM (inactive)
11 | Cn1c(SCc2c[nH]c3ccccc23)nnc1-c1ccc(Cl)cc1Cl | 8.3 µM (inactive) | 17.1 µM (inactive) | 12.4 µM (inactive) | 22.8 µM (inactive) | – | 17.5 µM (inactive) | 15.3 µM (inactive) | 18 µM (inactive) | 19.9 µM (inactive) | 1.29 µM (inactive) | 19.5 µM (inactive) | 17.4 µM (inactive) | 15.1 µM (inactive) | 16.3 µM (inactive) | 23.8 µM (inactive) | 12.1 µM | 36.2 µM (inactive) | 17.6 µM (inactive) | 22.7 µM (inactive) | 12.5 µM (inactive)
